Assay in all cases: NCI tumour cell line growth inhibition, 48 h
The test system of assay [1] is OVCAR-3 ovarian.
Assay [2] relates to NCI-H522 lung.
Assay [3] relates to SF-268 CNS.
Assay [4] concerns COLO 205 colon.
Assay [5] deals with SK-MEL-2 melanoma.
Assay [6] has as its system TK-10 renal.
For assay [7], the system named is DU-145 prostate.
Assay [8] concerns SK-OV-3 ovarian.
Assay [9] concerns SK-MEL-5 melanoma.
The test system of assay [10] is OVCAR-4 ovarian.

Structures are written as SMILES. “And” between values parts separate entries of the source, which are not always exact repeats. Equal entries are not always repeated.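 1) Cells in 96-well plates. 2) Compound, 48 h, 5 concentrations. 3) Linear interpolation between surrounding doses. 4) Unreached endpoint = highest concentration. The concentration for 50% growth inhibition is given as GI50. The concentration for full growth arrest is given as TGI.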

Turning to `Cc1cn2c(/C=N/Nc3ccccn3)c(-c3ccc(Cl)c([N+](=O)[O-])c3)nc2s1`, the GI50 in assay [1] was 11 µM; in assay [2], 7.35 µM; in [3], 11.6 µM; in [4], more than 50 µM; in assay [5] it was 21.2 µM; in assay [6], 15.3 µM. Further, the GI50 in assay [7] is 6.39 µM; in assay [8] it was 9.95 µM; in assay [9], 43.9 µM. In addition, the TGI was 27.3 µM in assay [1]; 26.5 µM in [2]; 31.7 µM in [3]; more than 50 µM in [4]; more than 50 µM in assay [5]; 47.3 µM in assay [6]. Also, the TGI is 29.8 µM in [7], 22.5 µM in [8] and more than 50 µM in assay [9].

Consider `CN(C)c1ccc(C(=C2C=CC(=[N+](C)C)C=C2)c2ccc(N(C)C)cc2)cc1`, for which the GI50 was 0.0974 µM in [4]; 0.162 µM in [6]; 0.0783 µM in assay [7]; 0.268 µM in assay [8]; 0.162 µM in assay [9]. For the same compound, the TGI in [4] was 0.447 µM and 0.751 µM; in assay [5], 0.472 µM and 0.482 µM; in [6] it was 0.864 µM; in [7], 1.23 µM; in assay [8], 0.86 µM and 0.718 µM; in assay [10] it was 1.05 µM. In assay [9], the TGI is 0.324 µM and 0.214 µM.

With `Clc1nc(Cl)c(-c2ccccc2)c(Cl)n1`, the TGI in assay [1] is 7.71 µM; in assay [2] it was 3.24 µM; in [3], more than 29.9 µM; in assay [4], 3.6 µM; in assay [6], 22.2 µM; in [7], 26.4 µM. Also, the TGI in [8] was determined as 23.3 µM; in assay [10], 6.55 µM; in assay [9], 9.36 µM.

Regarding `CCC(/C=C/c1ccccc1)=N\Nc1ccc(Cl)c(Cl)c1`, the TGI in assay [1] was more than 100 µM; in assay [2], 46.1 µM; in [3], more than 100 µM; in [4], more than 100 µM; in assay [5], 40.9 µM; in [6], more than 100 µM. For the same compound, the results for the TGI in [7], in [8] and in assay [9] were more than 100 µM, more than 100 µM and 30 µM, respectively.

Regarding `CCCCCCCOc1c(OC)cc(C2CC(=O)Nc3c2c(C)nn3-c2nc3ccccc3[nH]2)cc1OC` (centres undefined), the GI50 in [2] is 2.79 µM; in assay [3], 2.12 µM; in assay [4] it was 4.34 µM; in assay [5], 3.28 µM; in assay [6], 3.12 µM; in assay [7], 4.66 µM. Moreover, the results for the GI50 in assay [8] and in assay [9] were 2.77 µM and 1.93 µM, respectively. Further, the TGI in [2] was 10.3 µM; in assay [3] it was 6.68 µM; in [4], more than 100 µM; in assay [5] it was 12.6 µM; in assay [6] it was more than 100 µM; in assay [7], more than 100 µM. Also, the results for the TGI in assay [8] and in assay [9] were 7.55 µM and 3.78 µM, respectively.

Regarding `CCCOc1nc(SCCC)nc2c1cnn2-c1ccccc1`, the GI50 in [1], in assay [3], in [4], in assay [7], in [8] and in [10] was more than 100 µM throughout. In addition, the GI50 in assay [9] is more than 100 µM. The TGI in assay [1], in assay [3], in assay [4], in assay [7], in [8] and in [10] was more than 100 µM in each case. This compound also yielded a TGI in [9] of more than 100 µM.

In the case of `CC(C)C1COC(c2cccc(C3=N[C@@H](C(C)C)CO3)n2)=N1` (some centres undefined), the TGI in assay [1], in assay [2], in assay [3], in assay [4], in [5] and in assay [6] was more than 100 µM in each case. Besides, the TGI in assay [8], in [10] and in assay [9] was more than 100 µM throughout.

Consider `CCN(CC)CC(C(=O)Nc1c(C)cccc1C)/C(C)=N\NC(=O)c1ccncc1` (centres undefined), for which the TGI in assay [1], in assay [2], in assay [3], in assay [4], in assay [5] and in assay [6] was more than 100 µM each time. The TGI in assay [8], in assay [10] and in assay [9] was more than 100 µM each time.

`CCC1CCc2c(OC)ccc(OCC(=O)O)c2C1=O` (centres undefined): the TGI in assay [1], in [2], in [3], in assay [4], in assay [5] and in [6] was more than 100 µM in each case. Also, the TGI in assay [8], in [10] and in assay [9] was more than 100 µM throughout.

As for `CS/C(=N\c1nccs1)NC(=O)c1cccc(Cl)c1`, the TGI in [1], in assay [2], in assay [3], in assay [4], in [5] and in [6] was more than 100 µM throughout. In addition, the TGI in [8], in [10] and in [9] was more than 100 µM throughout.

These data come from PubChem BioAssay (NCI).
